Assay results: US20250214977A1, “STAT6 INHIBITORS AND USES THEREOF” (Kymera Therapeutics, Inc., priority 2024, published 2025)

Tested on: Phosphorylation of STAT6 in human A549 cells
Assay: Phosphorylated STAT6 (pSTAT6) flow cytometry assay in human A549 cells
Type: cell-based
Conditions: listed as I-394, read-out: STAT6 IL4 pSTAT6 assay in A549 cells: Average IC50
Source text: Example 3. Phosphorylated STAT6 (pSTAT6) Flow Cytometry Assay in Human A549 Cells
Phosphorylation of STAT6 in human A549 cells was quantitatively measured using flow cytometry technology.

Row | IC50 [nM] | Structure (SMILES)
1 | > 100000 | CCC1CN(C)CC1c1cc(C2=CCCN(C(=O)CCn3ccnn3)C2)c(F)c2[nH]c(C(=O)N3CCN(c4ncc(F)cc4OC)CC3)cc12 (stereo not drawn) [Example I-1209, 1-[5-[4-(4-ethyl-1-methyl-pyrrolidin-3-yl)-7-fluoro-2-[4-(5-fluoro-3-methoxy-2-pyridyl)piperazine-1-carbonyl]-1H-indol-6-yl]-3,6-dihydro-2H-pyridin-1-yl]-3-(triazol-1-yl)propan-1-one]

Same assay, conditions: read-out: STAT6 IL4 pSTAT6 assay in A549 cells: Average IC50

Row | IC50 [nM] | Structure (SMILES)
2 | < 100 | COc1cccc(N2CCN(C(=O)c3cc4c(-c5ccccc5OC)cc(C5=CCCN(C(=O)CCn6ccnn6)C5)c(F)c4[nH]3)CC2)n1 [Example I-359]
3 | < 100 | COc1cc(F)cnc1N1CCN(C(=O)c2cc3c(-c4cccc5c4OCCCO5)cc(C4=CCCN(C(=O)CCn5ccnn5)C4)c(F)c3[nH]2)CC1 [Example I-678]
4 | < 100 | COc1cc(F)ccc1-c1cc(C2=CCCN(C(=O)CCn3ccnn3)C2)c(F)c2[nH]c(C(=O)N3CCN(C4CC4)CC3)cc12 [Example I-588]
5 | < 100 | COc1c(F)cc(F)cc1-c1cc(C2=CCCN(C(=O)CCn3ccnn3)C2)c(F)c2[nH]c(C(=O)N3CCN(C4CC4)CC3)cc12 [Example I-603]
6 | > 100000 | COc1ccncc1-c1cc(C2=CCCN(C(=O)CCn3ccnn3)C2)c(F)c2[nH]c(C(=O)N3CCN(c4ccc(F)c(OC)c4F)CC3)cc12 [Example I-492]
7 | < 100 | COc1cc(F)cnc1N1CCN(C(=O)c2cc3c(-c4cnn(Cc5ccccc5)c4)cc(C4=CCCN(C(=O)CCn5ccnn5)C4)c(F)c3[nH]2)CC1 [Example I-1115]
8 | < 100 | CCc1nc(C)ccc1-c1cc(C(=O)N2CCN(c3ncc(F)cc3OC)CC2)cc2cc(C3=CCCN(C(=O)CCc4nccs4)C3)n(CC3CC3)c12 [Example I-523]
9 | > 100000 | COc1ccncc1-c1cc(C2=CCCN(C(=O)CCn3ccnn3)C2)c(F)c2[nH]c(C(=O)N3Cc4cnn(C)c4C3)cc12 [Example I-496]
10 | < 100 | COc1ccncc1-c1cc(C2=CCCN(C(=O)CCn3ccnn3)C2)c(F)c2[nH]c(C(=O)N3CCN(c4ncc(C5CC5)cc4OC)CC3)cc12 [Example I-438]
11 | < 100 | COc1cnc(N2CCN(C(=O)c3cc4c(-c5ccccc5OC)cc(C5=CCCN(C(=O)CCn6ccnn6)C5)c(F)c4[nH]3)CC2)c(OC)c1 [Example I-352]
12 | < 100 | COc1cc(F)cnc1N1CCN(C(=O)c2cc3c(-c4cccc(O)c4)cc(C4=CCCN(C(=O)CCn5ccnn5)C4)c(F)c3[nH]2)CC1 [Example I-615]
13 | 100 to 1000 | CCOC(=O)c1ccc(N2CCN(C(=O)c3cc4c(-c5ccccc5OC)cc(C5=CCCN(C(=O)CCn6ccnn6)C5)c(F)c4[nH]3)CC2)cc1 [Example I-931]
14 | 100 to 1000 | CN(C)C(=O)c1cc2cc(C3=CCCN(C(=O)CCn4ccnn4)C3)cc(NC3CCCC3)c2o1 [Example I-874]
15 | 100 to 1000 | COc1ccccc1-c1cc(C2=CCCN(C(=O)CCn3ccnn3)C2)c(F)c2[nH]c(C(=O)N3CCN(Cc4ccc(Cl)cc4)CC3)cc12 [Example I-868]
16 | < 100 | COc1cc(F)cnc1N1CCN(C(=O)c2cc3c(-c4cc(C5(C#N)CC5)ccc4F)cc(C4=CCCN(C(=O)CCn5ccnn5)C4)c(F)c3[nH]2)CC1 [Example I-650]
17 | < 100 | COc1ccncc1-c1cc(C2=CCCN(C(=O)CCn3ccnn3)C2)c(F)c2[nH]c(C(=O)N3CCN(c4ncccc4OC4CC4)CC3)cc12 [Example I-456]
18 | < 100 | COc1ccccc1-c1cc(C2=CCCN(C(=O)CCn3ccnn3)C2)c(F)c2[nH]c(C(=O)N3CCN(S(C)(=O)=O)CC3)cc12 [Example I-989]
19 | 10000 to 100000 | CCc1ccncc1-c1cc(C2=CCCN(C(=O)OC)C2)c(F)c2[nH]c(C(=O)N3CCN(c4ncc(F)cc4OC)CC3)cc12 [Example I-708]
20 | 100 to 1000 | COc1cccc(N2CCN(C(=O)c3cc4c(-c5cnc6ccccc6c5OC)cc(C5=CCCN(C(=O)CCn6ccnn6)C5)c(F)c4[nH]3)CC2)n1 [Example I-1038]
21 | < 100 | COc1ccccc1-c1cc(C2=CCCN(C(=O)CCn3ccnn3)C2)c(F)c2[nH]c(C(=O)N3CCN(c4cc(C#N)cc5[nH]ccc45)CC3)cc12 [Example I-771]
22 | < 100 | COc1ccccc1-c1cc(C2=CCCN(C(=O)CCn3ccnn3)C2)c(F)c2[nH]c(C(=O)N3CCN(c4ncc(F)c(F)c4OC)CC3)cc12 [Example I-510]
23 | 100 to 1000 | CC(=O)N1CCC=C(c2cc(-c3ccccc3C)c3cc(C(=O)N(C)C)[nH]c3c2F)C1 [Example I-890]
24 | > 100000 | CCOc1ccncc1-c1cc(C2=CCCN(C(=O)CCn3ccnn3)C2)c(F)c2[nH]c(C(=O)N3CCN(c4ccccc4OC)CC3)cc12 [Example I-406]
25 | 100 to 1000 | COc1cc(Cl)cnc1N1CCN(C(=O)c2cc3c(-c4cc(F)cc(F)c4OC)cc(C4=CCCN(C(=O)CCn5ccnn5)C4)c(F)c3[nH]2)CC1 [Example I-462]
26 | > 100000 | COc1ccccc1-c1cc(C2=CCCN(C(=O)CCn3ccnn3)C2)c(F)c2[nH]c(C(=O)N3CCN(c4cc5cc[nH]c5nc4C#N)CC3)cc12 [Example I-401]
27 | < 100 | COc1ccccc1-c1cc(C2=CCCN(C(=O)CCn3ccnn3)C2)c(F)c2[nH]c(C(=O)N3CCN(c4ccccc4)CC3)cc12 [Example I-419]
28 | < 100 | COc1ccccc1-c1cc(C2=CCCN(C(=O)CCn3ccnn3)C2)c(F)c2[nH]c(C(=O)N3CCC(c4cccnc4C)CC3)cc12 [Example I-1002]

Row | IC50 [nM] | Structure (SMILES)
29 | < 100 | COc1ccc(Cl)cc1-c1cc(C2=CCCN(C(=O)CCn3ccnn3)C2)cc2[nH]c(C(=O)N(C)C)cc12 [Example I-1058]
30 | < 100 | CCc1nc(C)ccc1-c1cc(C(=O)N2CCN(c3ncc(F)cc3OC)CC2)cc2cc(C3=CCCN(C(=O)CCn4ccnn4)C3)n(CC3CC3)c12 [Example I-517]
31 | < 100 | COc1ccccc1-c1cc(C2=CCCN(C(=O)CCn3ccnn3)C2)c(F)c2[nH]c(C(=O)N3CCN(c4ccc(=O)n(C)c4)CC3)cc12 [Example I-971]
32 | 100 to 1000 | COc1cc(Cl)cnc1N1CCN(C(=O)c2cc3c(-c4cnc5ccccc5c4OC)cc(C4=CCCN(C(=O)CCn5ccnn5)C4)c(F)c3[nH]2)CC1 [Example I-1037]
33 | 100 to 1000 | COc1ccccc1-c1cc(C2=CCCN(C(=O)C(C)C)C2)c(F)c2[nH]c(C(=O)N(C)C)cc12 [Example I-837]
34 | < 100 | COc1ccccc1-c1cc(C2=CCCN(C(=O)CCn3ccnn3)C2)c(F)c2[nH]c(C(=O)N3CCN(c4cc(F)c5ncccc5c4)CC3)cc12 [Example I-953]
35 | < 100 | CNc1ccc(-c2cc(C3=CCCN(C(C)=O)C3)c(F)c3[nH]c(C(=O)N(C)C)cc23)c(OC)c1 [Example I-1092]
36 | < 100 | COc1ccccc1-c1cc(C2=CCCN(C(=O)CCn3ccnn3)C2)cc2[nH]c(C(=O)N(C)C)cc12 [Example I-1054]
37 | < 100 | CCc1ccncc1-c1cc(C2=CCCN(C(=O)CC(=O)O)C2)c(F)c2[nH]c(C(=O)N3Cc4cnn(CC)c4C3)cc12 [Example I-787]
38 | 100 to 1000 | COc1ccccc1-c1cc(C2=CCCN(C(=O)CCn3ccnn3)C2)c(F)c2[nH]c(C(=O)N3CCN(c4c(O)ccc5ccccc45)CC3)cc12 [Example I-965]
39 | < 100 | CCc1nc(C)ncc1-c1cc(C2=CCCN(C(=O)CCn3ccnn3)C2)c(F)c2[nH]c(C(=O)N3Cc4cnn(CC)c4C3)cc12 [Example I-764]
40 | < 100 | COc1cc(F)cnc1N1CCN(C(=O)c2cc3c(-c4cccc5cnccc45)cc(C4=CCCN(C(=O)CCn5ccnn5)C4)c(F)c3[nH]2)CC1 [Example I-1119]
41 | 100 to 1000 | COc1ccc(NC(=O)c2cc3c(-c4ccccc4OC)cc(C4=CCCN(C(=O)CCn5ccnn5)C4)c(F)c3[nH]2)cn1 [Example I-979]
42 | < 100 | CCn1nccc1-c1cc(C2=CCCN(C(=O)CCn3ccnn3)C2)c(F)c2[nH]c(C(=O)N3CCN(c4ncccc4OC)CC3)cc12 [Example I-582]
43 | < 100 | COc1ccccc1-c1cc(C2=CCCN(C(=O)CCn3ccnn3)C2)c(F)c2[nH]c(C(=O)N3CCN(c4cn(C)c(=O)c5ccccc45)CC3)cc12 [Example I-905]
44 | < 100 | COc1cccnc1N1CCN(C(=O)c2cc3c(-c4cnc(C)c(C)c4OC)cc(C4=CCCN(C(=O)CCn5ccnn5)C4)c(F)c3[nH]2)CC1 [Example I-724]
45 | < 100 | COc1cc(F)cnc1N1CCN(C(=O)c2cc3c(-c4ccc(C#N)c(C)c4)cc(C4=CCCN(C(=O)CCn5ccnn5)C4)c(F)c3[nH]2)CC1 [Example I-1139]
46 | < 100 | COc1cc(F)cnc1N1CCN(C(=O)c2cc3c(C4=CCN(C5CC5)CC4)cc(C4=CCCN(C(=O)CCn5ccnn5)C4)c(F)c3[nH]2)CC1 [Example I-1131]
47 | < 100 | COc1cc(Cl)cnc1N1CCN(C(=O)c2cc3c(-c4cccnc4OC)cc(C4=CCCN(C(=O)CCn5ccnn5)C4)c(F)c3[nH]2)CC1 [Example I-460]
48 | < 100 | CCC1=C(c2cc(C3=CCCN(C(=O)CCn4ccnn4)C3)c(F)c3[nH]c(C(=O)N4CCN(c5ncc(F)cc5OC)CC4)cc23)CCNC1 [Example I-731]
49 | < 100 | COc1ccccc1-c1cc(C2=CCCN(C(=O)CCn3ccnn3)C2)c(F)c2[nH]c(C(=O)N3CCN(c4ccc(F)cc4OC)CC3)cc12 [Example I-431]
50 | > 100000 | COc1ccccc1-c1cc(C2=CCCN(C(=O)CCn3ccnn3)C2)c(F)c2[nH]c(C(=O)NC(C#N)c3ccccc3)cc12 (stereo not drawn) [Example I-772]
51 | > 100000 | CCc1ccc(-c2cc(C3=CCCN(C(=O)CCn4ccnn4)C3)c(F)c3[nH]c(C(=O)N4Cc5cnn(CC)c5C4)cc23)c(C)n1 [Example I-761]
52 | > 100000 | CCc1ncccc1-c1cc(C(=O)N2CCN(c3ncc(F)cc3OC)CC2)cc2cc(C3=CCCN(C(=O)C(=O)O)C3)n(CC3CC3)c12 [Example I-797]
53 | < 100 | COc1cc(F)cnc1N1CCN(C(=O)c2cc3c(-c4cnc5ccccc5c4OC)cc(C4=CCCN(C(=O)CCn5ccnn5)C4)c(F)c3[nH]2)CC1 [Example I-468]
54 | > 100000 | COc1ccc(F)cc1-c1cc(C2=CCCN(C(=O)CCn3ccnn3)C2)c(F)c2[nH]c(C(=O)N3CCN(c4ncccc4OC)CC3)cc12 [Example I-395]
